Reference: patent US20080027027A1, “Lactosucrose High Content Saccharide, Its Preparation and Uses” (priority 2004, published 2008)
Where two headings read alike, the source gives them in different places.

Assays:
[1] = crystal obtained from 90% (v/v) ethanol solution, Avigad 1957; cited from earlier work
[2] = Hygroscopicity of solid lactosucrose products under high temperature and humidity; assay type: physicochemical
Description: While, it has been known that a powdery saccharide, comprising lactosucrose with a lowered hygroscopicity and relatively high stability, can be obtained by elevating the purity of lactosucrose (see Japanese Patent Kokai No. 281,795/92).
To solve the above objects, the present inventors studied on a process for producing lactosucrose, using β-fructofuranosidase, from the viewpoints of the origin of β-fructofuranosidase and reaction condition as well as the combination with sucrose-unassimilable yeast. It has been thought that the lactosucrose content in the reaction mixture reaches maximum about 65%, on a saccharide composition basis, even in the case of using β-fructofuranosidase and invertase-deficient yeast.
According to conventional methods, lactosucrose high content fraction, obtained by the method in Example 4, was filtrated, deionized using ion-exchange resin, decolored using activated charcoal, and concentrated under a reduced pressure to give a moisture content of about 25% (w/w). The resulting concentrate was placed in a crystallizer, admixed with 1% (w/w) of seed crystal and gradually cooled to about 30° C. in 24 hours. The resulting massecuite was centrifuged and crystalline lactosucrose pentahydrate was obtained in a yield of about 40%. […]

Row | hygroscopicity ([2]; 27° C. and a relative humidity of 75%) | hygroscopicity ([2]; condition of high-temperature and humidity in summer) | Compound | hygroscopicity [1]
1 | – | – | O.O.O.O.O.OCC1OC(OC2C(CO)OC(OC3(CO)OC(CO)C(O)C3O)C(O)C2O)C(O)C(O)C1O (stereo not drawn) [crystalline lactosucrose pentahydrate] | strong hygroscopicity
2 | low hygroscopicity | no substantial hygroscopicity | OC[C@H]1O[C@@H](O[C@H]2[C@H](O)[C@@H](O)[C@@H](O[C@]3(CO)O[C@H](CO)[C@@H](O)[C@@H]3O)O[C@@H]2CO)[C@H](O)[C@@H](O)[C@H]1O [crystalline lactosucrose, β-D-galactosyl-(1,4)-α-D-glucosyl-(1,2)-β-D-fructoside] | –
